Assay results taken from patent US7772241B2, “Variolin derivatives and their use as antitumor agents” (Pharma Mar S.A., priority 2001, dated 2010).
Where two headings read alike, the source gives them in different places.

Tests used:
A-549 = assay: Inhibition of cells growth by colorimetric (SRB) assay, A-549; details: for GI50 / CC50: Homo sapiens, A549, 48 h; for TGI A-549 / A-549 TGI: SRB assay, 48 hours exposure
Summary of the method: (§1)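 Human tumour cells seeded at 5×10^3/well in RPMI 1640 10% FBS, attached 18 h, then exposed 48 h to samples at 10 to 10^−8 μg/ml in DMSO/EtOH/PBS (0.5:0.5:99). Growth read by SRB staining after TCA fixation, OD 490 nm, triplicate wells; GI, TGI and LC derived.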

HT-29 = assay: Inhibition of cells growth by colorimetric (SRB) assay, HT-29; details: for GI50 / CC50: Homo sapiens, HT-29, 48 h; for TGI HT-29 / HT-29 TGI: SRB assay, 48 hours exposure
Summary of the method: as §1

[1] = Inhibition of cells growth by colorimetric (SRB) assay, HMEC1; details: human, HMEC1 cells, 48 hours exposure
Description: (§2) The finality of these assays is to interrupt the growth of a “in vitro” tumor cell culture by means a continued exhibition of the cells to the sample to be testing.
(§3) This form of the assay employs 96 well cell culture microplates of 9 mm diameter (Faircloth, 1988; Mosmann, 1983). Most of the cell lines are obtained from American Type Culture Collection (ATCC) derived from different human cancer types.
(§4) Cells are maintained in RPMI 1640 10% FBS, supplemented with 0.1 g/l penicillin and 0.1 g/l streptomycin sulphate and then incubated at 37° C., 5% CO2 and 98% humidity. For the experiments, cells were harvested from subconfluent cultures using trypsin and resuspended in fresh medium before plating.
(§5) Cells are seeded in 96 well microtiter plates, at 5×10^3 cells per well in aliquots of 195 μl medium, and they are allowed to attach to the plate surface by growing in drug free medium for 18 hours. Afterward, samples are added in aliquots of 5 μl in a ranging from 10 to 10^−8 μg/ml, dissolved in DMSO/EtOH/PBS (0.5:0.5:99). After 48 hours exposure, the antitumor effect are measured by the SRB methodology: cells are fixed by adding 50 μl of cold 50% (wt/vol) trichloroacetic acid (TCA) and incubating for 60 minutes at 4° C. Plates are washed with deionized water and dried. One hundred μl of SRB solution (0.4% wt/vol in 1% acetic acid) is added to each microtiter well and incubated for 10 minutes at room temperature. Unbound SRB is removed by washing with 1% acetic acid. Plates are air dried and bound stain is solubilized with Tris buffer. Optical densities are read on a automated spectrophotometric plate reader at a single wavelength of 490 nm.
(§6) The values for mean +/−SD of data from triplicate wells are calculated. Some parameters for cellular responses can be calculated: GI=growth inhibition, TGI=total growth inhibition (cytostatic effect) and LC=cell killing (cytotoxic effect).

HMEC1 = assay: as above; details: for GI50: Homo sapiens, HMEC-1, 48 h
Description: as §2, §3, §4, §5, §6

[2] = read-out: GI50 A-549, SRB assay, 48 hours exposure
[3] = read-out: LC50 A-549, SRB assay, 48 hours exposure
[4] = read-out: GI50 HT-29, SRB assay, 48 hours exposure
[5] = read-out: LC50 HT-29, SRB assay, 48 hours exposure
[6] = read-out: GI50 H-MEC-1, SRB assay, 48 hours exposure
[7] = SRB assay, 48 hours exposure, in M (unit assumed)
[8] = read-out: A-549 LC50, SRB assay, 48 hours exposure
[9] = read-out: HT-29 GI50, SRB assay, 48 hours exposure
[10] = read-out: HT-29 LC50, SRB assay, 48 hours exposure

SMILES	GI50 (A-549; [2]) [µM]	GI50 (HT-29; [4]) [µM]	GI50 (A-549; read-out: A-549 GI50, SRB assay, 48 hours exposure) [µM]	GI50 (HT-29; [9]) [µM]	CC50 (A-549; [3]) [µM]	TGI A-549 (A-549)	CC50 (HT-29; [5]) [µM]	TGI HT-29 (HT-29)	CC50 at 48 h ([1]; LC50 H-MEC-1, SRB assay) [µM]	GI50 (HMEC1; [6]) [µM]	TGI H-MEC-1 (HMEC1; [7])	CC50 (A-549; [8]) [µM]	A-549 TGI (A-549)	CC50 (HT-29; [10]) [µM]	HT-29 TGI (HT-29)	CC50 at 48 h ([1]; H-MEC-1 LC50, SRB assay) [µM]	GI50 (HMEC1; read-out: H-MEC-1 GI50, SRB assay, 48 hours exposure) [µM]	H-MEC-1 TGI (HMEC1; [7])
CSc1nccc(-c2c3c(OCc4ccccc4)ccnc3n3c(N)nccc23)n1 [Compound 94]	24.1	24.1			24.1	2.41E−05	24.1	2.41E−05	24.1	9.19	1.97E−05							
COc1ccc(CNc2ccnc3c2c(-c2ccnc(SC)n2)c2ccnc(NCc4ccc(OC)cc4)n23)cc1 [Compound 85]	6.58	12.2			17.7	1.77E−05	17.7	1.77E−05	17.7	6.19	1.77E−05							
COc1nccc(-c2c3c(OCc4ccccc4)ccnc3n3c(N)nccc23)n1 [Compound 102]	25.1	25.1			25.1	2.51E−05	25.1	2.51E−05	19.7	6	1.09E−05							

More lines, main results first:

GI50 (A-549; [2]) [µM]	GI50 (HT-29; [4]) [µM]	GI50 (A-549; read-out: A-549 GI50, SRB assay, 48 hours exposure) [µM]	GI50 (HT-29; [9]) [µM]	SMILES	CC50 (A-549; [3]) [µM]	TGI A-549 (A-549)	CC50 (HT-29; [5]) [µM]	TGI HT-29 (HT-29)	CC50 at 48 h ([1]; LC50 H-MEC-1, SRB assay) [µM]	GI50 (HMEC1; [6]) [µM]	TGI H-MEC-1 (HMEC1; [7])	CC50 (A-549; [8]) [µM]	A-549 TGI (A-549)	CC50 (HT-29; [10]) [µM]	HT-29 TGI (HT-29)	CC50 at 48 h ([1]; H-MEC-1 LC50, SRB assay) [µM]	GI50 (HMEC1; read-out: H-MEC-1 GI50, SRB assay, 48 hours exposure) [µM]	H-MEC-1 TGI (HMEC1; [7])
		≥ 38.4	≥ 38.4	Nc1nccc2c(-c3ccccc3)c3cccnc3n12 [Compound 63]								≥ 38.4	3.84E−05	≥ 38.4	3.84E−05	≥ 38.4	≥ 38.4	3.84E−05
30.6			30.6	COc1cccc(-c2c3cccnc3n3c(N)nccc23)c1.Cl [Compound 67]					30.6	30.6	3.06E−05	30.6	3.06E−05	30.6	3.06E−05			
